The source made the active and inactive calls. The rule behind the calls is not given here.
Assays:
[1] = Chemical stability of the compound in aqueous buffer at pH 2 assessed as decomposition at 5 mM up to 2 hrs by RP-HPLC; type: physicochemical; details: pH 2, 2 h, 5000 µM
[2] = Chemical stability of the compound in aqueous buffer at pH 2 assessed as decomposition at 5 mM after 24 hrs by RP-HPLC; type: physicochemical; details: read-out: Drug degradation
[3] = Chemical stability of the compound in aqueous buffer at pH 6 assessed as decomposition at 5 mM up to 2 hrs by RP-HPLC; type: physicochemical; details: pH 6, 2 h, 5000 µM
[4] = Chemical stability of the compound in aqueous buffer at pH 6 assessed as decomposition at 5 mM after 24 hrs by RP-HPLC; type: physicochemical; details: read-out: Drug degradation
[5] = Chemical stability of the compound in aqueous buffer at pH 8 assessed as decomposition at 5 mM up to 2 hrs by RP-HPLC; type: physicochemical; details: pH 8, 2 h, 5000 µM
[6] = Chemical stability of the compound in aqueous buffer at pH 8 assessed as decomposition at 5 mM after 24 hrs by RP-HPLC; type: physicochemical; details: read-out: Drug degradation
[7] = Stability of the compound at -20 degreeC after 12 months; type: physicochemical; details: 8766 h
[8] = molecular target: Eukaryotic translation initiation factor 4E (Homo sapiens) (UniProt P06730); experiment: Binding affinity to recombinant eIF4E by fluorescence quenching titration method
Sequence of Eukaryotic translation initiation factor 4E (Homo sapiens) (P06730 whole entry): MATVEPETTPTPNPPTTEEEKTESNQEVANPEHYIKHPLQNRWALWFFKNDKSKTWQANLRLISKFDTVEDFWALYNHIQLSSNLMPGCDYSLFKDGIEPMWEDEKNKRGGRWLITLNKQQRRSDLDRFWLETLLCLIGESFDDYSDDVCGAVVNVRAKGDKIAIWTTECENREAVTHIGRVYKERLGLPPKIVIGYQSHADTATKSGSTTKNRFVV

DcpS = experiment: (§1) Stability of the compound assessed as human recombinant DcpS -mediated hydrolysis after 90 mins by HPLC; type: ADME; details: human, recombinant DcpS; read-out: Drug degradation
[9] = molecular target: T1, Eukaryotic translation initiation factor 4E (Oryctolagus cuniculus, UniProt P29338); experiment: Inhibition of eIF4E-mediated mRNA translation in rabbit reticulocyte lysate by luciferase reporter gene assay
T1 sequence (P29338 whole entry): as the sequence (P06730 whole entry) above, with T16P, T17A, E174D counted along it

[10] = molecular target: T1, Eukaryotic translation initiation factor 4E; experiment: Inhibition of eIF4E-mediated mRNA translation in rabbit reticulocyte lysate pre-incubated for 60 mins prior to mRNA addition by luciferase reporter gene assay
[11] = as §1; type: ADME; details: 1.5 h
Homo sapiens = species on record: Homo sapiens; experiment: Selectivity ratio of Ka for human recombinant DcpS to Ka for eIF4E
Nucleic Acid = experiment: Capping efficiency in mRNA after 60 mins by gel electrophoresis in the presence of SP6 polymerase; type: nucleic-acid assay
[12] = molecular target: Eukaryotic translation initiation factor 4E (Oryctolagus cuniculus) (UniProt P29338); experiment: Inhibition of eIF4E-mediated mRNA translation in rabbit reticulocyte lysate assessed as translation efficiency after 60 mins by luciferase reporter gene assay relative to m7GpppG-capped mRNA
Sequence of Eukaryotic translation initiation factor 4E (Oryctolagus cuniculus) (P29338 whole entry): as the sequence (P06730 whole entry) above, with T16P, T17A, E174D counted along it

[13] = molecular target: T2, m7GpppX diphosphatase (Homo sapiens) (UniProt Q96C86)
T2 sequence (whole entry): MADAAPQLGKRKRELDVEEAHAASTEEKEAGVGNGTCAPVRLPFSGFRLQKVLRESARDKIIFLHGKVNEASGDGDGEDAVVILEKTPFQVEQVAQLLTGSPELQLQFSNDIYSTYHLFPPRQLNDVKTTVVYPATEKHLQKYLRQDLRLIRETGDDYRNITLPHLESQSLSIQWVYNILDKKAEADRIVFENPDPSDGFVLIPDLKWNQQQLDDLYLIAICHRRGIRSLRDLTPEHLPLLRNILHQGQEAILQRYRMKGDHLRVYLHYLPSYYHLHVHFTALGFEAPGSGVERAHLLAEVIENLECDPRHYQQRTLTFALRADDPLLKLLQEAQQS
Description: Binding affinity to human recombinant DcpS by fluorescence quenching titration method

Drug degradation [1]	degraded at 24 h, 5000 µM [2] [%]	Drug degradation [3]	degraded at 24 h, 5000 µM [4] [%]	Drug degradation [5]	degraded at 24 h, 5000 µM [6] [%]	Stability [7]	Ka [8] [µM⁻¹]	metabolised at 1.5 h (DcpS) [%]	IC50 [9] [µM]	IC50 [10] [µM]	Drug degradation [11]	Ratio (Homo sapiens)	Activity (Nucleic Acid)	fold change (FC) [12]	Ka [13] [µM⁻¹]	Compound
Not Active	< 10	Not Active	< 10	Not Active	< 10	Stable	10.1	20	8.49	5.97						C[n+]1cn([C@@H]2O[C@H](COP(=O)([O-])OP(=O)([O-])NP(=O)([O-])OC[C@H]3O[C@@H](n4cnc5c(=O)[nH]c(N)nc54)[C@H](O)[C@@H]3O)[C@@H](O)[C@H]2O)c2nc(N)[nH]c(=O)c21.[Na+].[Na+]
Not Active	< 10	Not Active	< 10	Not Active	< 10	Stable	10.4				Not Active	1.2	Active	1.11	12.8	CO[C@@H]1[C@H](O)[C@@H](COP(=O)([O-])OP(=O)([O-])NP(=O)([O-])OC[C@H]2O[C@@H](n3cnc4c(=O)[nH]c(N)nc43)[C@H](O)[C@@H]2O)O[C@H]1n1c[n+](C)c2c(=O)[nH]c(N)nc21.[Na+].[Na+]

Reference: ChEMBL document CHEMBL1949618, “Synthesis and properties of mRNA cap analogs containing imidodiphosphate moiety--fairly mimicking natural cap structure, yet resistant to enzymatic hydrolysis” (Bioorg Med Chem, 2012)
